Blank lines part the entries; values can stand above or below the compound they belong to.
Assays:
[1] = Stability in human gastric juice assessed as half life of hydrolysis; assay type: ADME, tissue-based
[2] = Stability in human serum assessed as half life of hydrolysis; assay type: ADME, cell-free
[3] = Chemical stability assessed as half life of hydrolysis in phosphate buffer at pH 8.5; assay type: physicochemical
[4] = Chemical stability assessed as half life of hydrolysis in carbonate buffer at pH 8.5; assay type: physicochemical
[5] = Aqueous stability assessed as time to reach 90% of starting dose at pH 3.0 to 7.4; assay type: physicochemical; details: buffer
Liver = assay: Metabolic stability in rat liver S9 fraction assessed as esterase conversion rate; assay type: ADME, subcellular
[6] = Aqueous stability assessed as time to reach 90% of starting dose at pH 7; assay type: physicochemical; details: buffer
[7] = Oral bioavailability in rat; assay type: ADME, organism-based; details: in vivo
[8] = Aqueous stability assessed as time to reach 90% of starting dose at pH 7; details: buffer
Trypanosoma brucei = assay: Antiparasitic activity against Trypanosoma brucei; assay type: functional, organism-based
[9] = Chemical stability assessed as half life of hydrolysis at neutral pH; assay type: physicochemical
[10] = Chemical stability assessed as half life of hydrolysis at acidic pH; assay type: physicochemical

- half-life [1]: < 5 min
- half-life [2]: 4 h
Structure (SMILES): CC(C)(C)C(=O)SCCOP(=O)(COCCn1cnc2c(N)ncnc21)OCCSC(=O)C(C)(C)C

Structure (SMILES): O=C(O)CCNC(=O)[C@H](Cc1ccc(-c2ccccc2)cc1)NCP(=O)(Oc1ccccc1)Oc1ccccc1
- half-life [3]: > 96 h
- half-life [4]: 0.5 h

- Stability [5]: < 4 h
- Stability (Liver): > 300 nmol/min/mg
Structure (SMILES): CC(=O)Oc1ccc(COP(=O)(OCc2ccc(OC(C)=O)cc2)c2ccc(-c3nc(N)sc3CC(C)C)o2)cc1

- Stability [5]: > 48 h
- Stability (Liver): 11 nmol/min/mg
- Stability [6]: > 7 days
- bioavailability [7]: 22%
Structure (SMILES): CCOC(=O)[C@H](C)NP(=O)(N[C@@H](C)C(=O)OCC)c1ccc(-c2nc(N)sc2CC(C)C)o1

Structure (SMILES): CCOC(=O)[C@H](C)NP(=O)(Oc1ccccc1)c1ccc(-c2nc(N)sc2CC(C)C)o1 (stereo partly specified)
- Stability [8]: 14 h
- Stability (Liver): 55 nmol/min/mg

- Stability [8]: 8 h
- Stability (Liver): > 300 nmol/min/mg
Structure (SMILES): CC(=O)SCCOP(=O)(OCCSC(C)=O)c1ccc(-c2nc(N)sc2CC(C)C)o1

- Stability [8]: 36 h
- Stability (Liver): 43 nmol/min/mg
Structure (SMILES): CCOC(=O)CNP(=O)(NCC(=O)OCC)c1ccc(-c2nc(N)sc2CC(C)C)o1

- Stability [8]: < 4 h
- Stability (Liver): > 300 nmol/min/mg
Structure (SMILES): CC(C)Cc1sc(N)nc1-c1ccc(P(=O)(OCOC(=O)C(C)(C)C)OCOC(=O)C(C)(C)C)o1

Structure (SMILES): CC(C)(C)C(=O)SCCOP(=O)(OCCSC(=O)C(C)(C)C)Oc1ccc(O)c(C(=O)O)c1
- IC50 (Trypanosoma brucei): 20 µM

- half-life [9]: > 40 h
- half-life [10]: > 40 h
Structure (SMILES): CC(C)(C)C(=O)OCOP(=O)(OCOC(=O)C(C)(C)C)OC[C@H]1O[C@@H](n2cc(F)c(=O)[nH]c2=O)C[C@@H]1O

Reference: ChEMBL document CHEMBL1144790, “Prodrugs of phosphates and phosphonates” (J Med Chem, 2008)
